The results in this text go back to US20250127751A1, “Traditional Chinese Medicine Compound Preparation for Tumors and Application thereof” (priority 2023, published 2025).

The structures appear in SMILES notation. Values joined by “and” are separate entries in the source; they are usually repeats but may differ in a detail not shown here. Identical values can stand only once. Like-named read-outs stand apart in the source and are kept apart here.

Type in all cases: cell-based, human
Assay [1] concerns NB4 cells. Particulars: 24 h. Here is the method: The ANNEXIN V-FITC/PI double-staining method is established based on a principle of asymmetric loss of cell membrane in apoptotic cells, that is, externalization of phosphatidylserine. Determination of results: normal live cells: annexin V^−PI^−; apoptotic cells: annexin V^+PI^−, and necrotic or late apoptotic cells: annexin V^+PI^+.
NB4 cells at the logarithmic growth phase were seeded at a density of 1×10^5 cells/well into a 6-well plate, and dosed 24 h later. The proapoptotic effect of each group was detected according to the dosing methods in Table 1. The cells were collected 24 h after drug dosing and detected on a flow cytometer according to the operating procedure of an ANNEXIN V-FITC/PI apoptosis detection kit (purchased from Solarbio). The experiment was repeated three times.

In assay [2] the test system is NB4 cells. To be noted: 10 d; doses of Table 2 (alone 30 μM, pairs 15 μM each, DCI 10 μM each). On the procedure: NB4 cells at the logarithmic growth phase were seeded at a density of 2×10^5 cells/well into a 6-well plate, and dosed 24 h later. […] NB4 cells cultured for 10 d were centrifuged at 110 g for 3 min, smeared, fixed with methanol, and air dried naturally. Then, the cell smear was stained with Wright's-Giemsa for morphological observation. The experiment was repeated three times.

Assay [3] relates to CD33. Here is the method:
(§1) In an immunological marker examination of APL cells, CD11b is negative and CD33 is positive. The surface antigen CD33 is associated with the degree of cellular immaturity, while the surface antigen CD11b is associated with the degree of cellular maturity, High expression of CD11b, as an adhesion molecule on the cell surface, may be a marker of cell differentiation maturation.
(§2) NB4 cells at the logarithmic growth phase were seeded at a density of 2×10^5 cells/well into a 6-well plate, and dosed 24 h later. […] 24 h after the last dosing, cells were collected, centrifuged to remove the culture medium, washed twice with precooled PBS, and resuspended in 100 μL PBS. APC (allophycocyanin) and BB515 labeled CD11b and CD33 monoclonal antibodies and corresponding isotype antibodies (both purchased from BD, USA) were added respectively. Following mixing, the cells were incubated at 4° C. for 30 min, filtered through a cell filter membrane, and then detected.

Assay [4] relates to CD11b. On the procedure:
as §1, §2

The test system of assay [5] is NB4 cells. To be noted: single compound 30 μM; dosed 10 d. Here is the method:
When normal neutrophils or differentiated cells are stimulated, the production of intracellular superoxide anions increases. NBT receives hydrogen from NADPH in the differentiated cells and reduces into insoluble blue black or blue purple particles—formazane particles.
NB4 cells at the logarithmic growth phase were seeded at a density of 2×10^5 cells/well into a 6-well plate, and dosed 24 h later. […] 24 h after the last dose, the culture medium was discarded, and the cells were washed twice with PBS. 500 μL of a 0.1% NBT solution (purchased from Sigma and prepared from PBS) containing 1 μg/ml of phorbol ester (PMA, purchased from Sigma) was added to each well, and the cells were incubated at 37° C. for 30 min, washed twice with PBS, and observed under a microscope. In a 400× magnification field, 200 cells were randomly counted from each specimen. Cells containing gray or black formazane particles in the cytoplasm were counted as NBT reduction positive cells, and the percentage of the reduction positive cells was calculated. The experiment was repeated three times.

Setting [6] is: single compound 30 μM, dosed 10 d.

Turning to `Nc1ncnc2c1ncn2[C@@H]1O[C@H](CO)C[C@H]1O` [CDY, Cordycepin], the “Apoptosis rate of NB4 cells (%)” value in assay [1] (single compound 20 μM) is 10.70 ± 3.54%; in assay [1] (single compound 40 μM), 19.39 ± 5.64%. For the same molecule, in assay [2], the “Morphology of NB4 cells” value was “no significant differences from the control group”. Besides, the “Positive rate of CD33 expression in NB4 cells (%)” value in assay [3] (setting [6]) stood at 37.14 ± 15.90%. Moreover, in assay [4] (setting [6]), the “Positive rate of CD11b expression in NB4 cells (%)” value turned out to be 1.79 ± 1.42%. For the same molecule, the “NBT reduction positive rate in NB4 cells (%)” value in assay [5] is 3.19% and 3.19 ± 2.09%.
For `O=C1Nc2ccccc2/C1=C1/Nc2ccccc2C1=O` [IDB, Indirubin], the “Apoptosis rate of NB4 cells (%)” value in assay [1] (single compound 20 μM) was found to be 28.88 ± 11.51%; in assay [1] (single compound 40 μM) it was 31.38 ± 8.92 %. Besides, the “Positive rate of CD33 expression in NB4 cells (%)” value in assay [3] is 27.50 ± 16.67 %. In addition, the “Positive rate of CD11b expression in NB4 cells (%)” value in assay [4] came to 26.42 ± 10.91 %. Moreover, the “NBT reduction positive rate in NB4 cells (%)” value in assay [5] is 15.20% and 15.20 ± 4.10 %.
